One molecule from article doi:10.1101/144204v1, “On the use of the experimentally determined enzyme inhibition constant as a measure of absolute binding affinity” (biorxiv, 2017) can be followed below.

Structures are written as SMILES. Counter-ions that a name gives are not always drawn.

For this assay, the target named is T1, eeAChE (Electrophorus electricus acetylcholinesterase) (Electrophorus electricus, UniProt O42275).
T1 construct: gene ache; construct details not given
Description: Ellman assay (ATCh/DTNB, […] nm), Lineweaver-Burk. The assay is classed as biochemical. (In general: DTNB colorimetry detects thiols as they appear.)

T1 sequence (O42275 24-633): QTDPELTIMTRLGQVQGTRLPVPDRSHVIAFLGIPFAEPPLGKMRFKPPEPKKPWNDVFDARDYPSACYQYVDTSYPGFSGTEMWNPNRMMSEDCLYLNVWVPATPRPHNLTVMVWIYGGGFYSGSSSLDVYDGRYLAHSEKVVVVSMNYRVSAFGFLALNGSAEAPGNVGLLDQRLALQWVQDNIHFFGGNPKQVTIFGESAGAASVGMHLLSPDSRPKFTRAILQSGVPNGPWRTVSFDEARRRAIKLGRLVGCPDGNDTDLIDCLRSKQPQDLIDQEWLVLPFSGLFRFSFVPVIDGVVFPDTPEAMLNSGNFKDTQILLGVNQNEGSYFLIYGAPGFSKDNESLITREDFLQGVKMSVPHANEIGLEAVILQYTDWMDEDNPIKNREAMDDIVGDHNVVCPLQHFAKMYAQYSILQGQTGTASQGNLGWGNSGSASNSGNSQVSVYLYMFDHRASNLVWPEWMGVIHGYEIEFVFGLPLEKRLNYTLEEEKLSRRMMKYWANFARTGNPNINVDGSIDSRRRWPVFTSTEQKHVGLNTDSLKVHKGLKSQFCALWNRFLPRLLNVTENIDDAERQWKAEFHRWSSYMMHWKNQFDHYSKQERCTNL

Consider `c1ccc2c(NCCCCCCCNc3c4c(nc5ccccc35)CCCC4)c3c(nc2c1)CCCC3` [bis(7)-tacrine, 1,7-N-heptylene-bis-9,9'-amino-1,2,3,4-tetrahydro-acridinium dihydrochloride], for which the Ki (in general, the dissociation constant of the complex between target and ligand, obtained from inhibition or displacement) is 2.9 ± 0.4 pM.
